Measurements reported in patent publication US20230165864A1, “APPLICATION OF HETEROCYCLIC COMPOUND” (GUANGZHOU JOYO PHARMATECH CO., LTD, priority 2020, published 2023).
Each block holds one molecule with its values, some of them ahead of it.

How the values were obtained:
[1] = Phase III clinical trial (N=287); cited from earlier work
[2] = Clinical trial study of tablets containing compound 11A: fasting blood glucose and safety; assay type: in vivo, human
Experimental: The embodiments were all derived from a clinical trial study. The subjects were screened and eligible to enter groups according to the entry criteria specified in the clinical protocol. The test drug was administered orally on day 1, and adverse events and combined administration were observed and recorded after administration. After safety evaluation was conducted on day 7 of the single administration period, the subjects received continuous administration of the test drug until the subjects withdrew from the clinical trial. Safety assessments were conducted during the clinical trial according to the time specified in the clinical protocol.
Embodiments 2 to 9 were derived from an ongoing clinical trial study with dose groups of 0.1 mg, 0.2 mg, 0.4 mg, 0.5 mg, 0.7 mg, 0.9 mg, 1.1 mg, and 1.4 mg.

[3] = Bioavailability experiments (pharmacokinetics) in beagle dogs; assay type: in vivo; conditions: male and female beagle dogs
Experimental: Bioavailability Experiments
During the experimental period, animals were housed in single cages with animal identification codes marked on the cage tags. The 12 non-naïve beagle dogs (6/sex) were randomly divided into 2 groups (3/sex/group).
(§1) (1) Non-naïve beagle dogs were administered intravenously (solvent 50% PEG400+50% PBS) at a dose volume of 2 mL/kg per dog (dose of 0.1 mg/kg per dog), and then blood was collected to measure the plasma drug concentration of non-naïve beagle dogs at different time points of 15 minutes, 30 minutes, 1 hour, 2 hours, 4 hours, 6 hours, 8 hours, and 24 hours.
as §1, with “(2)” for “(1)”, “orally” for “intravenously (solvent 50% PEG400+50% PBS)”, “1 tablet” for “2 mL/kg”, “0.5 mg” for “0.1 mg/kg”, “hours; the oral bioavailability of tablets was calculated.” for “hours.”
Plasma drug concentration data was processed in a non-compartment model using WinNonlin™ Version 6.2.1 (Pharsight, Mountain View, Calif.) pharmacokinetic software. The peak concentration (Cmax), peak time (Tmax) and quantifiable time were directly read out from the plasma drug concentration-time diagram.
The following pharmacokinetic parameters were calculated using the log-linear trapezoidal method: elimination phase half-life (T1/2), apparent volume of distribution (Vdss) and clearance rate (CL), mean residence time of the drug from 0 to the end time point in vivo (MRT0-last), mean residence time of the drug from 0 to infinite time in vivo (MRT0-inf), the area under the time-plasma concentration curve from 0 to the end time point (AUC0-last), the area under the time-plasma concentration curve from 0 to infinite time (AUC0-inf), initial concentration (C0).

SMILES: Cc1nc(NC(=O)N2CCC[C@H]2C(N)=O)sc1-c1ccnc(C(C)(C)C(F)(F)F)c1 [Alpelisib]
diarrhea incidence [1]: 57.7% | diarrhea incidence above grade 3 [1]: 6.7% | nausea incidence [1]: 44.7% | nausea incidence above grade 3 [1]: 2.5% | vomiting incidence [1]: 27.1% | vomiting incidence above grade 3 [1]: 0.7%

Vd ([3]; both sexes, dog, plasma, single intravenous injection 0.1 mg/kg, read-out: apparent volume of distribution (Vdss)): 6.16 ± 1.91 L/kg | AUC(0-t) ([3]; both sexes, dog, plasma, single intravenous injection 0.1 mg/kg, read-out: area under the curve AUC0-last): 0.114 ± 0.0276 µM·h | half-life ([3]; both sexes, dog, plasma, single intravenous injection 0.1 mg/kg, read-out: mean plasma elimination phase half-life Tin (converted)): 3.21 ± 1.81 h | clearance ([3]; both sexes, dog, plasma, single intravenous injection 0.1 mg/kg, read-out: plasma clearance rate (CL)): 24.6 ± 6.66 mL/min/kg | bioavailability ([3]; both sexes, dog, plasma, single oral administration of tablet containing 0.5 mg of 11A (prescription of embodiment 1)): 80.9% | Cmax ([3]; both sexes, dog, plasma, single oral administration of tablet containing 0.5 mg of 11A (prescription of embodiment 1), read-out: peak concentration (Cmax)): 11.1 ± 2.08 nM | peak times ([3]; single oral administration of tablet containing 0.5 mg of 11A (prescription of embodiment 1)): 1.00 ± 0.00 h
SMILES: COCCOc1cnc2ccc(-c3cnc(OC)c(NS(=O)(=O)c4sc(C)nc4C)c3)cn2c1=O [Compound 11A]
fasting blood glucose ([2]; Subject 1, tablet 0.1 mg once a day oral from Nov. 9, 2018, follow-up Mar. 14, 2019, baseline 5.64 mmol/L): 6.19 mmol/L | fasting blood glucose ([2]; Subject 2, tablet 0.2 mg once a day oral from Jan. 16, 2019, follow-up Jan. 23, 2019, baseline 5.81 mmol/L): 6.45 mmol/L | fasting blood glucose ([2]; Subject 3, tablet 0.4 mg once a day oral from May 30, 2019, follow-up Jun. 5, 2019, baseline 5.63 mmol/L): 6.99 mmol/L | fasting blood glucose ([2]; Subject 5, tablet 0.7 mg once a day oral from Nov. 7, 2019, follow-up Nov. 13, 2019, baseline 6.06 mmol/L): 8.37 mmol/L | fasting blood glucose ([2]; Subject 5, tablet 0.7 mg once a day oral from Nov. 7, 2019, follow-up Nov. 20, 2019, baseline 6.06 mmol/L): 9.44 mmol/L | fasting blood glucose ([2]; Subject 6, 0.7 mg tablet administered continuously again from Nov. 30, 2019, follow-up Dec. 4, 2019): 11.44 mmol/L | fasting blood glucose after stopping administration ([2]; Subject 6, 0.7 mg tablets stopped Nov. 27, 2019, measured Nov. 29, 2019): returned to normal | fasting blood glucose ([2]; Subject 6, tablet 0.7 mg once a day oral from Nov. 21, 2019, follow-up Nov. 27, 2019, baseline 5.87 mmol/L): 11.4 mmol/L | fasting blood glucose ([2]; Subject 7, tablet 0.7 mg once a day oral from Dec. 10, 2019, follow-up Jan. 20, 2020, baseline 5.92 mmol/L): 9.13 mmol/L | fasting blood glucose ([2]; Subject 8, tablet 1.1 mg once a day oral from Dec. 17, 2019 (so in the source), measured Dec. 23, 2020, baseline 6.87 mmol/L): 12.66 mmol/L | fasting blood glucose ([2]; Subject 9, tablet 1.4 mg once a day oral from Aug. 27, 2020, measured Sep. 2, 2020, baseline 5.94 mmol/L): 10.77 mmol/L | incidence of hyperglycemia ([2]; subjects of dose groups 0.1-1.4 mg, during the administering period): 80% | gastrointestinal side effects such as nausea, vomiting and diarrhea ([2]; the 8 subjects of embodiments 2 to 9): no significant gastrointestinal side effects
